Experimental data taken from publication PMC4809600, “The Influence of Chronic Wound Extracts on Inflammatory Cytokine and Histatin Stability” (PLoS ONE, 2016).
Where no end group is shown, it is not given here.

Columns and labels:
[1] = Stability in CWE with protease inhibitor cocktail (PIC), capillary zone electrophoresis; assay type: in vitro ADME, human; conditions: 37°C, CZE, 0 h = 100%; for Percentage intact, CWE + PIC 2h / Percentage intact, CWE + PIC 4h / Percentage intact, CWE + PIC 8h / Percentage intact, CWE + PIC 16h / Percentage intact, CWE + PIC 24h / Percentage intact, CWE + PIC 48h / Percentage intact, CWE + PIC 72h / Percentage intact, CWE + PIC 96h: 1 mg/ml in PBS mixed 1:1 with CWE (1 mg/ml protein, pool of 5 donors) in PBS containing PIC (final 1:140 v/v), ratio to imidazole
From the text: Debridement tissue was obtained from chronic ulcers of 15 patients with therapy resistant (arterio-venous) leg ulcers, according to procedures described earlier. In brief, moist, easily removable debridement material, essentially blood free, was collected from the ulcer surface and divided equally into two different solutions: (i) PBS (B. Braun, Melsungen, Germany), (ii) PBS with protease inhibitor cocktail (PIC) (1:100; v/v) (Sigma-Aldrich, Steinheim, Germany). The mixtures were gently shaken for 1 h at 4°C to elute proteins and centrifuged; the supernatants were stored at -80°C. Total protein content of the supernatant was measured using the BioRad Protein Assay (BioRad Laboratories, Hercules, California, USA) essentially as described by the supplier. Samples were diluted to 1 mg/ml protein and extracts of five different donors were pooled; three different pools of five donors were used in all experiments. The samples are referred to as chronic wound extracts (CWE).
To determine the stability of the different peptides in CWE, histatins and cytokines were dissolved in PBS at 1 mg/ml. Histatins and cytokines were incubated in a 1:1 ratio with (i) PBS, (ii) CWE in PBS, or (iii) CWE in PBS containing PIC, in a total volume of 25 μl. Imidazole (Sigma-Aldrich) was added as an internal standard, with a final concentration of 100 μg/ml. The mixtures were incubated at 37°C, and samples were taken at 0, 24, 48, 72 and 96 h. For histatins containing mixtures, additional samples were taken after 2, 4, 8 and 16 h of incubation.
The samples were analyzed with a BioFocus 2000 capillary zone electrophoresis system (Bio-Rad Laboratories, Hercules, CA, USA) equipped with an uncoated fused-silica capillary of internal diameter 50 μm and a length of 24 cm. Samples were loaded by pressure injection (5 psi/sec). Separation was performed at 10 kV (cathode at the detector side) at 20°C using 0.1 M phosphate buffer (pH 2.5) as electrolyte and monitored continuously at 200 nm. Peaks were quantified with the BioFocus Integrator software. In order to quantify the percentage of intact peptides remaining after incubation with CWE, the ratios of histatins, rhIL-6 or rhCXCL8 to internal standard was set at 100% at 0h, and the ratios at the other incubation time points were related to this.

[2] = Stability in chronic wound extracts (CWE), capillary zone electrophoresis; assay type: in vitro ADME, human; conditions: 37°C, CZE; for Percentage intact, CWE 2h / Percentage intact, CWE 4h / Percentage intact, CWE 8h / Percentage intact, CWE 16h / Percentage intact, CWE 24h / Percentage intact, CWE 48h / Percentage intact, CWE 72h / Percentage intact, CWE 96h: 1 mg/ml in PBS mixed 1:1 with CWE (1 mg/ml protein, pool of 5 donors) in PBS, UV 200 nm, ratio to imidazole
Summary of the method: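 Peptides or cytokines (1 mg/ml stock) mixed 1:1 with PBS or pooled chronic-wound extract (1 mg/ml protein, three pools of five donors), ±protease inhibitor cocktail, at 37 °C for up to 96 h. Analyzed by capillary zone electrophoresis (pH 2.5 phosphate, 200 nm), with peak ratio to imidazole standard relative to 0 h as % intact.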

In the case of SHREFPFYGDYGS [mad-Hst1], the “Percentage intact, CWE + PIC 2h” value ([1]; experiment 1 of 3) is reported as 100%, the “Percentage intact, CWE + PIC 2h” value ([1]; experiment 2 of 3) is reported as 98.3314% and the “Percentage intact, CWE + PIC 2h” value ([1]; experiment 3 of 3) is reported as 98.9861%. For the same sequence, the “Percentage intact, CWE + PIC 4h” value ([1]; experiment 1 of 3) was 97.1353%, the “Percentage intact, CWE + PIC 4h” value ([1]; experiment 2 of 3) was 95.8953% and the “Percentage intact, CWE + PIC 4h” value ([1]; experiment 3 of 3) was 98.3062%. The “Percentage intact, CWE + PIC 8h” value ([1]; experiment 1 of 3) was 96.5658%, the “Percentage intact, CWE + PIC 8h” value ([1]; experiment 2 of 3) was 92.2482% and the “Percentage intact, CWE + PIC 8h” value ([1]; experiment 3 of 3) was 95.5781%. For the same sequence, the “Percentage intact, CWE + PIC 16h” value ([1]; experiment 1 of 3) was 90.0803%, the “Percentage intact, CWE + PIC 16h” value ([1]; experiment 2 of 3) was 88.9151% and the “Percentage intact, CWE + PIC 16h” value ([1]; experiment 3 of 3) was 87.9983%. For the same sequence, the “Percentage intact, CWE + PIC 24h” value ([1]; 24 h, experiment 1 of 3) was 92.5228%, the “Percentage intact, CWE + PIC 24h” value ([1]; 24 h, experiment 2 of 3) was 84.6363% and the “Percentage intact, CWE + PIC 24h” value ([1]; 24 h, experiment 3 of 3) was 83.1367%. The “Percentage intact, CWE + PIC 48h” value ([1]; experiment 1 of 3) was 76.9205%, the “Percentage intact, CWE + PIC 48h” value ([1]; experiment 2 of 3) was 78.1025% and the “Percentage intact, CWE + PIC 48h” value ([1]; experiment 3 of 3) was 83.127%. The “Percentage intact, CWE + PIC 72h” value ([1]; experiment 1 of 3) was 74.0975%, the “Percentage intact, CWE + PIC 72h” value ([1]; experiment 2 of 3) was 73.8197% and the “Percentage intact, CWE + PIC 72h” value ([1]; experiment 3 of 3) was 80.0857%. The “Percentage intact, CWE + PIC 96h” value ([1]; experiment 1 of 3) was 76.9035%, the “Percentage intact, CWE + PIC 96h” value ([1]; experiment 2 of 3) was 71.7331% and the “Percentage intact, CWE + PIC 96h” value ([1]; experiment 3 of 3) was 77.8206%. For the same sequence, the remaining at 24 h, 0.5 mg/ml ([1]; human, with protease inhibitor cocktail (PIC), CWE with protease inhibitor cocktail (final 1:140 v/v), 24 h, mean of 3 independent experiments, read-out: Remaining fraction of intact peptide after 24 h in CWE + PIC) was 87%, the “Percentage intact, CWE 2h” value ([2]; 0 h = 100%, experiment 1 of 3) was 91.7% and the “Percentage intact, CWE 2h” value ([2]; 0 h = 100%, experiment 2 of 3) was 99.5769%. For the same sequence, the “Percentage intact, CWE 2h” value ([2]; 0 h = 100%, experiment 3 of 3) was 98.2054%, the “Percentage intact, CWE 4h” value ([2]; 0 h = 100%, experiment 1 of 3) was 84.5% and the “Percentage intact, CWE 4h” value ([2]; 0 h = 100%, experiment 2 of 3) was 100.271%. For the same sequence, the “Percentage intact, CWE 4h” value ([2]; 0 h = 100%, experiment 3 of 3) was 91.5097%, the “Percentage intact, CWE 8h” value ([2]; 8 h, 0 h = 100%, experiment 1 of 3) was 75.7% and the “Percentage intact, CWE 8h” value ([2]; 8 h, 0 h = 100%, experiment 2 of 3) was 86.2011%. The “Percentage intact, CWE 8h” value ([2]; 8 h, 0 h = 100%, experiment 3 of 3) was 78.6965%, the “Percentage intact, CWE 16h” value ([2]; 0 h = 100%, experiment 1 of 3) was 69.2% and the “Percentage intact, CWE 16h” value ([2]; 0 h = 100%, experiment 2 of 3) was 65.943%. The “Percentage intact, CWE 16h” value ([2]; 0 h = 100%, experiment 3 of 3) was 57.6063%, the “Percentage intact, CWE 24h” value ([2]; 24 h, 0 h = 100%, experiment 1 of 3) was 42.5808% and the “Percentage intact, CWE 24h” value ([2]; 24 h, 0 h = 100%, experiment 2 of 3) was 50.836%. For the same sequence, the “Percentage intact, CWE 24h” value ([2]; 24 h, 0 h = 100%, experiment 3 of 3) was 32.6705%, the “Percentage intact, CWE 48h” value ([2]; 0 h = 100%, experiment 1 of 3) was 12.2019% and the “Percentage intact, CWE 48h” value ([2]; 0 h = 100%, experiment 2 of 3) was 19.3697%. For the same sequence, the “Percentage intact, CWE 48h” value ([2]; 0 h = 100%, experiment 3 of 3) was 24.0021%, the “Percentage intact, CWE 72h” value ([2]; 0 h = 100%, experiment 1 of 3) was 1.49% and the “Percentage intact, CWE 72h” value ([2]; 0 h = 100%, experiment 2 of 3) was 2.89%. The “Percentage intact, CWE 72h” value ([2]; 0 h = 100%, experiment 3 of 3) was 2.789%, the “Percentage intact, CWE 96h” value ([2]; 0 h = 100%, experiment 1 of 3) was 0.001% and the “Percentage intact, CWE 96h” value ([2]; 0 h = 100%, experiment 2 of 3) was 0.001%. The “Percentage intact, CWE 96h” value ([2]; 0 h = 100%, experiment 3 of 3) was 1.322%, the remaining at 8 h, 0.5 mg/ml ([2]; human, chronic wound extracts (CWE), 1 mg/ml in PBS mixed 1:1 with CWE (1 mg/ml protein, pools of 5 donors), 8 h, 0 h = 100%, mean of 3 independent experiments, read-out: Original amount of peptide remaining intact after 8 h in CWE) was 80% and the remaining at 24 h, 0.5 mg/ml ([2]; human, chronic wound extracts (CWE), 1 mg/ml in PBS mixed 1:1 with CWE (1 mg/ml protein, pools of 5 donors), 24 h, 0 h = 100%, mean of 3 independent experiments, read-out: Original amount of peptide remaining intact after 24 h in CWE) was 42%. It also gave a metabolised at 8 h, 0.5 mg/ml ([2]; human, chronic wound extracts (CWE), incubation with chronic wound extracts, 8 h, read-out: Breakdown (degradation) in CWE in 8 h) of ~20%.
